Each molecule was assayed on jejunal mucosal 5-HT in mice (C57 BL6) (assay: Reduction of mucosal 5-HT concentrations (Example C, repeated oral dosing)). Details: (title), P-value class.
Type: in vivo, mouse
Description: The efficacy of the TPH1 inhibitors of the invention was assessed for the ability to decrease intestinal serotonin concentration in mice. Mice (C57 BL6) were administered an oral dose of 10 or 50 mg/kg of the test article in the evening. […] Following an overnight fast, each animal was euthanized by exsanguination under isoflurane anesthesia. Jejunal intestinal mucosa was isolated and homogenized in […] of a buffer containing 0.3M trichloroacetic acid, 0.1M sodium acetate, 10 mM EDTA, 20 mM sodium bisulfate and 50 mM ascorbic acid. Following centrifugation the 5-HT levels in the supernatants were measured by HPLC. The remaining mucosal pellet was solubilized overnight at 37° C. in a 0.1% sodium dodecyl sulfate buffer in 0.1N NaOH followed by determination of protein concentrations using a BCA protein assay (Pierce, Rockford, Ill.). 5-HT levels were normalized to protein and data were expressed as mean percent reduction of mucosal 5-HT levels relative to vehicle control±SEM (percent 5-HT reduction). All animal studies were carried out with protocols approved by the Institutional Animal Care and Use Committee. P-values, indicating statistical significance of the data (ANOVA) are provided in the table: * refers to P<0.05,** refers to P<0.01, *** refers to P<0.005, and **** refers to P<0.0005.

Molecule	Efficacy (statistical significance of reduction of mucosal 5-HT concentrations relative to vehicle)
(S)-cyclopentyl 8-(2-amino-6-((R)-1-(4′-chloro-3-(3- methyl-1H-pyrazol-1-yl)-[1,1′-biphenyl]-4-yl)-2,2,2- trifluoroethoxy)pyrimidin-4-yl)-2,8- diazaspiro[4.5]decane-3-carboxylate [Example 69b]	*** (*** refers to P<0.005)

Same assay, conditions: after three oral doses (first 10 or 50 mg/kg, then two doses of 50 mg/kg) (title), P-value class

Molecule	Efficacy (statistical significance of reduction of mucosal 5-HT concentrations relative to vehicle)
CCOC(=O)[C@@H]1CC2(CCN(c3cc(O[C@H](c4ccc(Cl)cc4-n4ccc(C)n4)C(F)(F)F)nc(N)n3)CC2)CN1 [Example 63az, (S)-ethyl 8-(2-amino-6-((R)-1-(4-chloro-2-(3-methyl-1H-pyrazol-1-yl)phenyl)-2,2,2-trifluoroethoxy)pyrimidin-4-yl)-2,8-diazaspiro[4.5]decane-3-carboxylate]	*** (*** refers to P<0.005)
CCOC(=O)[C@@H]1CC2(CCN(c3cc(O[C@H](c4ccc(Cl)cc4-c4cc(F)cc(F)c4)C(F)(F)F)nc(N)n3)CC2)CN1 [Example 63ey, (S)-ethyl 8-(2-amino-6-((R)-1-(5-chloro-3′,5′-difluoro-[1,1′-biphenyl]-2-yl)-2,2,2-trifluoroethoxy)pyrimidin-4-yl)-2,8-diazaspiro[4.5]decane-3-carboxylate]	** (** refers to P<0.01)
CCOC(=O)[C@@H]1CC2(CCN(c3cc(O[C@H](c4ccc(Cl)cc4-c4cccnc4)C(F)(F)F)nc(N)n3)CC2)CN1 [Example 63fo, (S)-ethyl 8-(2-amino-6-((R)-1-(4-chloro-2-(pyridin-3-yl)phenyl)-2,2,2-trifluoroethoxy)pyrimidin-4-yl)-2,8-diazaspiro[4.5]decane-3-carboxylate]	* (* refers to P<0.05)
CCOC(=O)[C@@H]1CC2(CCN(c3cc(O[C@H](c4ccc(-c5ccc(OC)cc5)cc4-n4ccc(C)n4)C(F)(F)F)nc(N)n3)CC2)CN1 [Example 63ha, (S)-ethyl 8-(2-amino-6-((R)-2,2,2-trifluoro-1-(4′-methoxy-3-(3-methyl-1H-pyrazol-1-yl)-[1,1′-biphenyl]-4-yl)ethoxy)pyrimidin-4-yl)-2,8-diazaspiro[4.5]decane-3-carboxylate]	** (** refers to P<0.01)
CCOC(=O)[C@@H]1CC2(CCN(c3cc(O[C@H](c4ccc(Cl)cc4-c4ccccc4)C(F)(F)F)nc(N)n3)CC2)CN1 [Example 63i, (S)-ethyl 8-(2-amino-6-((R)-1-(5-chloro-[1,1′-biphenyl]-2-yl)-2,2,2-trifluoroethoxy)pyrimidin-4-yl)-2,8-diazaspiro[4.5]decane-3-carboxylate]	*** (*** refers to P<0.005)
CC(C)OC(=O)[C@@H]1CC2(CCN(c3cc(O[C@H](c4ccc(Cl)cc4-c4ccccc4)C(F)(F)F)nc(N)n3)CC2)CN1 [Example 69a, (S)-isopropyl 8-(2-amino-6-((R)-1-(5-chloro-[1,1′-biphenyl]-2-yl)-2,2,2-trifluoroethoxy)pyrimidin-4-yl)-2,8-diazaspiro[4.5]decane-3-carboxylate]	*** (*** refers to P<0.005)
CCCOC(=O)[C@@H]1CC2(CCN(c3cc(O[C@H](c4ccc(Cl)cc4-c4ccccc4)C(F)(F)F)nc(N)n3)CC2)CN1 [Example 69c, (S)-propyl 8-(2-amino-6-((R)-1-(5-chloro-[1,1′-biphenyl]-2-yl)-2,2,2-trifluoroethoxy)pyrimidin-4-yl)-2,8-diazaspiro[4.5]decane-3-carboxylate]	*** (*** refers to P<0.005)

Each molecule was assayed on jejunal mucosal 5-HT in mice (C57 BL6) (assay: Intestinal 5-HT depletion assay (Example B, single 150 mg/kg oral dose)). Details: one day after oral administration of a single 150 mg/kg dose, P-value class (ANOVA).
Type: in vivo, mouse
Outline: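 C57 BL6 mice received one 150 mg/kg oral gavage dose; jejunal mucosa was homogenized in acidic trichloroacetic acid buffer and 5-HT measured by HPLC. Levels normalized to BCA protein, expressed as mean percent reduction versus vehicle ± SEM; ANOVA significance.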

Molecule	Efficacy (statistical significance of reduction of mucosal 5-HT concentrations relative to vehicle)
CCOC(=O)[C@@H]1CC2(CCN(c3cc(O[C@H](c4ccc(Cl)cc4-n4ccc(C)n4)C(F)(F)F)nc(N)n3)CC2)CN1 [Example 63az, (S)-ethyl 8-(2-amino-6-((R)-1-(4-chloro-2-(3-methyl-1H-pyrazol-1-yl)phenyl)-2,2,2-trifluoroethoxy)pyrimidin-4-yl)-2,8-diazaspiro[4.5]decane-3-carboxylate]	*** (*** refers to P<0.005)
